The target of data set [1] is T1, WT HIV-1 RT DNA-dependent DNA polymerase activity (Human immunodeficiency virus type 1 group M subtype B, UniProt P04585).
T1 construct: made in house
Kind of data set: biochemical. It counts as biochemical. To be noted: for Polymerase Activity IC50 (DNA Polymerase): WT RT, mean ± SD, at least three independent experiments. Here is the method:
(§1) WT (wild-type) RT, and RTs harboring the NNRTI-resistant mutations K101E, K103N, Y181C, Y188C, G190A and P236L, were overexpressed and purified to homogeneity as described previously. The RT concentration was determined spectrophotometrically at 280 nm using an absorbance coefficient of 260,450 M^−1·cm^−1. The 7-hydroxy tropolone derivative 19,616 (2,7-dihydroxy 2,4,6-cyclo-heptatrien-1-one) was purchased from Molecular Diversity Preservation International (Basel, Switzerland). […] The benzisothiazolone derivatives were procured from MolPort (New York, NY, USA) or Enamine (Kyiv, Ukraine). The DNA and RNA oligonucleotides were synthesized and purified by Integrated DNA Technologies (Coralville, IA, USA). All other reagents were of the highest quality available and were used without further purification.
DDDP assays were also performed using a QuantiFluor ONE based spectrophotometric assay to detect double-stranded DNA synthesized by recombinant HIV-1 RT [14]. The reaction contained 40 nM of a template/primer comprising a 200 nt DNA template (5′-[…] […]-[…]-[…] […] […]-3′) annealed to an 18-nucleotide DNA primer (5′-[…]-3′), and a mix of 50 mM Tris-HCl pH 7.8, 50 mM NaCl, 10 mM MgCl2 and 50 µM dNTP. The reactions were stopped after 45 min by adding the detection reagent containing 1 × Quant-Fluor One (Promega) and 12.5 mM ethylenediaminetet-raacetic acid; the samples were transferred to a 96-well black plate, and fluorescence was measured at excitation/emission (490/535 nm).

The target of data set [2] is T2, WT HIV-1 RT RNase H activity (Human immunodeficiency virus type 1 group M subtype B, UniProt P04585).
T2 construct: made in house
The experiment in a line: biochemical. The conditions noted are these: for RNase H Activity IC50: WT RT, mean ± SD, at least three independent experiments. It counts as biochemical. Here is the method: as §1
Compounds were screened at a final concentration of 10 µM in 1× assay buffer (50 mM Tris pH 8.0, 60 mM KCl, 5 mM MgCl2) containing 1% DMSO in 384-well Greiner black polystyrene plates (VWR catalog # 82051-272). A total of 10 µL of intermediate diluted compounds (100 µM in 10% DMSO) was transferred into assay plates using the Evolution-3 (EP3) (Perkin Elmer, Waltham, MA, USA) automated liquid handling platform outfitted with a 384-well transfer head. A total of 40 µL of RT-RNase H enzyme (60 ng per well) were then dispensed into each well using the Titertek MAP-C2 reagent dispenser platform (Huntsville, AL, USA). A total of 50 µL of the RNA/DNA duplex (140 nM) substrate was then dispensed into each well using the MAP-C2 dispenser, and the assay plates were then incubated at room temperature for 20 min. After 20 min, the assay was terminated by the addition of 10 µL of 1 M EDTA pH 9.0 stop buffer. Relative fluorescent unit (RFU) signals, Excitation 490 nm and Emission 528 nm (Cutoff 515 nm), were captured on the Spectromax M5e plate reader (Molecular Devices, Menlo, CA, USA). […] The template also calculated the plate signal-to-background (S:B) ratios (mean maximum signal/mean minimum signal) and Z’-factor coefficient HTS performance statistics.
(§2) The following RNA/DNA T/P substrate was used in the present study: an 18-nucleotide RNA template (RNA-18T: 5′-[…]-3′) was annealed to an 18-nucleotide primer (DNA-18T: 5′-[…]-3′), as described previously. Fluorescein and IowaBlack FQTM were covalently attached to the 3′- and 5′-ter-mini of the RNA and DNA oligonucleotides, respectively.
(§3) The FRET-based RNase H cleavage assays were carried out as described previously. Fluorescence was measured with a SpectraMax M2 microplate spectrofluorometer (Molecular Devices, San Jose, CA, USA) using an excitation wavelength of 490 nm and an emission wavelength of 528 nm. Data were analyzed using SoftMax Pro software, version 4.7.1 (Molecular Devices, San Jose, CA, USA).
We implemented a rapid, robust and inexpensive fluorescence-based 384-well assay for the measurement of RT RNase H activity, previously described by Parniak et al.. The substrate comprises an 18-nucleotide 3′-fluorescein-labeled heteropolymeric RNA annealed to a complementary 5′-dabcyl-modified DNA. RT cleaves the RNA strand of this substrate close to the 3′ end, promoting the dissociation of the fluorescein-labeled RNA fragment and generating a detectable fluorescent signal. We used this HTS assay to screen 65,239 compounds at a final concentration of 10 µM.

In data set [3] the test system is P236L HIV-1 RT RNase H activity. The experiment in a line: FRET-based RT RNase H cleavage assay, P236L RT. The format is biochemical. To be noted: P236L RT; fold resistance IC50 mutant/IC50 WT. Here is the method:
(§4) WT (wild-type) RT, and RTs harboring the NNRTI-resistant mutations K101E, K103N, Y181C, Y188C, G190A and P236L, were overexpressed and purified to homogeneity as described previously. The RT concentration was determined spectrophotometrically at 280 nm using an absorbance coefficient of 260,450 M^−1·cm^−1. The 7-hydroxy tropolone derivative 19,616 (2,7-dihydroxy 2,4,6-cyclo-heptatrien-1-one) was purchased from Molecular Diversity Preservation International (Basel, Switzerland). Nevirapine was purchased from Selleckchem (Houston, TX, USA). The benzisothiazolone derivatives were procured from MolPort (New York, NY, USA) or Enamine (Kyiv, Ukraine). The DNA and RNA oligonucleotides were synthesized and purified by Integrated DNA Technologies (Coralville, IA, USA). All other reagents were of the highest quality available and were used without further purification.
as §2, §3

Data set [4] addresses T3, P236L HIV-1 RT RNase H activity (Human immunodeficiency virus type 1 group M subtype B, UniProt P04585, P823L).
T3 construct: made in house
Kind of data set: FRET-based RT RNase H cleavage assay, P236L RT. The format is biochemical. Here is the method:
as §4, §2, §3

In data set [5] the test system is K103N HIV-1 RT RNase H activity. Kind of data set: FRET-based RT RNase H cleavage assay, K103N RT. The conditions noted are these: K103N RT; fold resistance IC50 mutant/IC50 WT. The format is biochemical. Here is the method: as §4, §2, §3
Data set [6] addresses T4, K103N HIV-1 RT RNase H activity (Human immunodeficiency virus type 1 group M subtype B, UniProt P04585, K690N).
T4 construct: made in house
The experiment in a line: FRET-based RT RNase H cleavage assay, K103N RT. The format is biochemical. Here is the method:
as §4, §2, §3

Data set [7] concerns G190A HIV-1 RT RNase H activity. The experiment in a line: FRET-based RT RNase H cleavage assay, G190A RT. It counts as biochemical. To be noted: G190A RT; fold resistance IC50 mutant/IC50 WT. Here is the method:
as §4, §2, §3

For data set [8], the target named is T5, G190A HIV-1 RT RNase H activity (Human immunodeficiency virus type 1 group M subtype B, UniProt P04585, G777A).
T5 construct: made in house
The experiment in a line: FRET-based RT RNase H cleavage assay, G190A RT. It counts as biochemical. Here is the method: as §4, §2, §3

Data set [9] addresses T6, K101E HIV-1 RT RNase H activity (Human immunodeficiency virus type 1 group M subtype B, UniProt P04585, K688E).
T6 construct: made in house
Kind of data set: FRET-based RT RNase H cleavage assay, K101E RT. The format is biochemical. Here is the method:
as §4, §2, §3

The subject of data set [10] is K101E HIV-1 RT RNase H activity. Kind of data set: FRET-based RT RNase H cleavage assay, K101E RT. The format is biochemical. To be noted: K101E RT; fold resistance IC50 mutant/IC50 WT. Here is the method: as §4, §2, §3
The test system of data set [11] is Y181C HIV-1 RT RNase H activity. The experiment in a line: FRET-based RT RNase H cleavage assay, Y181C RT. The format is biochemical. To be noted: Y181C RT; fold resistance IC50 mutant/IC50 WT. Here is the method: as §4, §2, §3
In data set [12] the target is T7, Y181C HIV-1 RT RNase H activity (Human immunodeficiency virus type 1 group M subtype B, UniProt P04585, Y768C).
T7 construct: made in house
Kind of data set: FRET-based RT RNase H cleavage assay, Y181C RT. The format is biochemical. Here is the method:
as §4, §2, §3

Data set [13] concerns the target T8, Y188C HIV-1 RT RNase H activity (Human immunodeficiency virus type 1 group M subtype B, UniProt P04585, Y775C).
T8 construct: made in house
Kind of data set: FRET-based RT RNase H cleavage assay, Y188C RT. The format is biochemical. Here is the method:
as §4, §2, §3

Data set [14] has as its system Y188C HIV-1 RT RNase H activity. Kind of data set: FRET-based RT RNase H cleavage assay, Y188C RT. To be noted: Y188C RT; fold resistance IC50 mutant/IC50 WT. The format is biochemical. Here is the method: as §4, §2, §3
A short description of data set [15]: Cytotoxicity in TZM-bl cells. The format is cell-based. To be noted: human, TZM-bl cell death. Here is the method:
(§5) Next, we re-purchased 10 hit compounds with IC50 values < 1.0 µM for the inhibition of RT RNase H activity that were commercially available in sufficient quantities for further analysis. We assessed their antiviral activity and cytotoxicity in TZM-bl cells, as described previously.

The next data set has as its system HIV-1. The experiment in a line: Antiviral activity (HIV-1 replication) in TZM-bl cells. The format is cell-based. To be noted: Human immunodeficiency virus 1, mean ± SD. Here is the method:
The genes for Y181C, Y181I, Y181V and Y181F were cloned into HIV-1LAI. NNRTI susceptibility was determined in TZM-bl cells, as described previously.
as §5

A word on the IC50: it is the concentration needed to halve the response being measured. Low readings indicate inhibition by little substance, high ones a need for much substance. Consider `O=c1c2ccccc2sn1-c1ccc(S(=O)(=O)N2CCCC2)cc1` [Compound 5], for which, in data set [1], inhibition was half-maximal at 25 ± 25 µM (IC50) and the “Polymerase Activity IC50 (DNA Polymerase)” value (from here on “Polymerase Activity IC50”) is listed as “modest activity”. Also, in data set [2], the concentration for half-maximal inhibition (IC50) came out at 15.4 ± 9.2 µM and the “RNase H Activity IC50” value is listed as “modest activity”.
Consider `O=S(=O)(c1cccc(-c2cn3cc(Cl)ccc3n2)c1)N1CCOCC1` [Compound 7], for which the IC50 in data set [1] and in [2] was over 81 µM each time.
Regarding `O=c1c2ccccc2sn1-c1ccc(S(=O)(=O)N2CCCCC2)cc1` [Compound 6], in data set [1], it took 12.2 ± 3.7 µM to reach half-maximal inhibition (IC50) and the “Polymerase Activity IC50” value is given as “modest activity”. Besides, in data set [2], half-maximal inhibition (IC50) was put at 39.2 ± 21 µM and the “RNase H Activity IC50” value is reported as “modest activity”.
For the molecule `Cc1ccc(-c2nc3ccccc3s2)cc1S(=O)(=O)N1CCOCC1` [Compound 9], the IC50 in data set [1] and in data set [2] was over 81 µM in each case.
`O=S(=O)(c1cccc(-c2nc3ccccc3s2)c1)N1CCCC1` [Compound 11]: the values for the half-maximal inhibitory concentration (IC50) in [1] and in data set [2] were 62 ± 38 µM and over 81 µM, respectively.
In the same order, the values of `O=S(=O)(c1cc(-c2nc3ccccc3s2)ccc1Cl)N1CCOCC1` [Compound 10] are over 81 µM and over 81 µM.
`CC1CN(S(=O)(=O)c2cccc(-c3cn4ccccc4n3)c2)CC(C)O1` (stereo not drawn) [Compound 8]: the IC50 in data set [1] and in data set [2] was over 81 µM throughout.
With `O=c1c(O)ccccc1O` [Compound 19619, 2,7-dihydroxy 2,4,6-cyclo-heptatrien-1-one, reference compound], the “Inhibition of RT RNase H Activity Fold-R” value in [3] is 1.0; in data set [5] it was 1.1; in data set [7], 0.8; in [10], 0.9; in [11], 1.4; in data set [14], 0.6. The IC50 in [4] amounted to 8.9 ± 2.5 µM; in data set [6], 9.4 ± 0.9 µM; in data set [8], 7.1 ± 1.9 µM; in data set [9], 8.1 ± 1.7 µM; in [12], 12.1 ± 1.6 µM; in data set [2], 8.7 ± 3 µM. Moreover, the midpoint of inhibition in data set [13], the IC50, lay at 5.5 ± 2.4 µM.
The CC50 is the concentration at which the toxic effect on the cells reaches its halfway point. Read a low CC50 as harm at low concentration. The term EC50 denotes the concentration at which the effect is half-maximal. A lower EC50 goes with higher potency in that assay. Turning to `Cn1sc2ccccc2c1=O` [Compound 3, 2-methylbenzo[d]isothiazol-3(2H)-one], the “Inhibition of RT RNase H Activity Fold-R” value in data set [3] was found to be 0.9; in data set [5] it was 1.0; in [7], 1.0; in data set [10] it was 0.9; in data set [11], 0.8; in data set [14], 2.3. The IC50 was 2.2 ± 0.2 µM in [4]; 2.4 ± 0.2 µM in [6]; 2.4 ± 0.4 µM in [8]; 2.2 ± 0.3 µM in data set [9]; 2.1 ± 0.3 µM in [12]; over 81 µM in data set [1]. The IC50 in [2] was determined as 2.5 ± 0.2 µM; in data set [13] it was 5.7 ± 1.2 µM. Moreover, in data set [15], the 50% cytotoxic concentration (CC50) was at least 100 µM. For the same molecule, the EC50 in the data set with HIV-1 came to 28.4 ± 12.3 µM. Besides, the “Polymerase Activity IC50” value in data set [1] was “completely inactive”.
